Test results: patent US20160264593A1 (priority 2013, published 2016)
pIC50: −log10 of the molar value. Values joined by “and” are separate entries in the source; they are usually repeats but may differ in a detail not shown here. Equal entries are not always repeated. Where two headings read alike, the source gives them in different places.

What was measured:
PP2A [1] = experiment: PP2A immunoprecipitation phosphatase assay on mouse brain lysate, OA added to the reaction (positive control); assay type: biochemical, Balb/c mice
Description: (§1) Coomassie (Bradford) Protein Assay Kit (Pierce); PP2A Immunoprecipitation Phosphatase Assay Kit (Millipore); Lysate preparation for low endogenous phosphate: 20 mM imidazole-HCl, 2 mM EDTA, 2 mM EGTA, 1 mM PMSF, 1 mM benzamidine, 10 ug/ml each of aprotinin, leupeptin, antipain, soybean trypsin inhibitor; Normal Mouse IgG (Millipore); Okadaic acid (OA) (Tocris); DMSO (Sigma).
(§2) 1. Mouse brain or liver was homogenized using lysis buffer (25 g/L), centrifuged at 12000 g for 10 minutes at […], and the supernatants were collected. 2. The protein was quantitated, and 240 μg of mouse brain or liver lysate was taken to assay phosphatase activity. 3. Added 4 μg of Anti-PP2A or 4 μg Normal mouse IgG as an IP control. 4. Added 30 μl Protein A agarose slurry. 5. Brought volume to 500 μl with pNPP Ser/Thr Assay Buffer. 6. Incubated for 2 h at 4° C. with constant rocking. 7. Washed beads 3 times with 700 μl TBS, followed by one wash with 500 μl Ser/Thr Assay Buffer. 8. Added 20 μl of Ser/Thr Assay Buffer. (In order to determine the linear range of PP2A amount for enzymatic reaction, different amounts of precipitated PP2A were used for subsequent phosphatase assay.) 9. Added 60 μl of diluted phosphopeptide (final concentration would be 750 μM) 10. Added OA (5 μM & 5 nM) or DMSO to the reaction system. 11. Incubated for 10 minutes at 30° C. in a shaking incubator. 12. Centrifuged briefly and transferred 25 μl into each well of the microliter plate to be used.
13. Added 100 μl of Malachite Green Phosphate Detection Solution AB.
14. Let color develop for 10-15 minutes at RT. 15. Measured absorbance at a wavelength between […] in a microliter plate reader.

PP2A [2] = experiment: PP2A immunoprecipitation phosphatase assay on mouse liver lysate, OA added to the reaction (positive control); assay type: biochemical, Balb/c mice
Description: as §1
as §2, with “Incubated for 10 minutes at 30° C. in a shaking incubator. 12. Centrifuged briefly and transferred 25 μl into each well of the microliter plate to be used.” left out
14. […] Measured absorbance at a wavelength between […] in a microliter plate reader.

[3] = system: breast cancer (2LMP) cells; experiment: WST cell viability assay, 2LMP
Description: (§3) IC50 values were obtained for cytotoxicity against breast cancer (2LMP), glioblastoma (U-87) and lung cancer (A549) cells (See Table 5 and FIGS. 3-5).

lung cancer (A549) cells = experiment: WST cell viability assay, A549; assay type: cell-based; details: for pIC50: WST-20131028, read-out: IC50 A549; for cytotoxicity against lung cancer cells (statement): WST
[4] = system: breast cancer (2LMP) cells
Description: as §3

[5] = system: glioblastoma (U-87) cells; experiment: WST cell viability assay, U-87 MG; assay type: cell-based; details: for pIC50: read-out: IC50 U-87 MG; for cytotoxicity against glioblastoma cells (statement): WST, U-87
[6] = Pharmacokinetic study of 153 (and metabolite endothal) in SD rats, iv and po; plasma, liver, brain; assay type: in vivo
Description: The blood, liver and brain tissue samples were collected at predetermined times from rats. […] Compound were diluted shortly before use in 4% sodium bicarbonate for sterile injection (this is the standard pediatric solution of NaHCO3 with a pH of about 8.5).
Compound 153 was freshly prepared by diluting the drugs shortly before use in 4% sodium bicarbonate for sterile injection (this is the standard pediatric solution of NaHCO3 with a pH of about 8.5). The final concentrations of 153 solutions were 0.25 mg/mL. The 153 solutions were administered via iv or po route at dose volume of 5 ml/kg according to the latest body weight. Compound 157 was freshly prepared by diluting the drugs shortly before use in 4% sodium bicarbonate for sterile injection (this is the standard pediatric solution of NaHCO3 with a pH of about 8.5). The final concentrations of […] solutions were 0.3 mg/mL. The 157 solutions were administered via iv or po route at dose volume of 5 ml/kg according to the latest body weight.
Twelve (12) female SD rats per group were dosed by iv with 153 or 157. The rats were fasted overnight prior to dosing, with free access to water. Foods were withheld for 2 hours post-dose. Blood, liver and brain tissue samples in two animals each group were collected at each time point, within 10% of the scheduled time for each time point. Two extra animals were used for analytic method development.
Blood (>0.3 mL) were collected via aorta abdominalis in anaesthetic animals into tubes containing heparin at 15 min, 1, 2, 6, 10 and 24 hours after iv administration. Liver and brain tissues were collected immediately after animal death. The liver and brain tissues were excised and rinsed with cold saline to avoid blood residual. Upon collection, each sample was placed on ice and the blood samples were subsequently centrifuged (4° C., 11000 rpm, 5 min) to separate plasma. The obtained plasma, liver and brain tissue samples were stored at −70° C. until LC-MS/MS analysis.
Two (2) female SD rats per group were dosed by po with 153 or 157. The rats were fasted overnight prior to dosing, with free access to water. Foods were withheld for 2 hours post-dose. Blood samples (>0.3 mL) were collected via aorta abdominalis in anaesthetic animals into tubes containing heparin at 30 min, 1, 2, 6, 10 and 24 hours after po administration.
To each sample, 20 μL IS-D (for blank samples, 20 μL acetonitrile:water (1:1) was added) and 300 μl acetonitrile was added. The sample mixture was vortexed for approximately 3 min. After centrifugation at 10000 rpm for 5 min at 4° C., 100 μL of the upper layer was transferred to a new tube and added 200 μL 0.4% formic acid in water (pH 6.0). The mixture was vortexed for approximately 3 min before injected onto the LC/MS/MS system for analysis.
On the day of the assay, the frozen liver and brain samples were thawed unassisted at room temperature. An about 200 mg weighed sample of each thawed tissue was placed into a plastic tube with water (0.6 mL) to facilitate homogenization. Tissue processing was conducted using a homogenizer for approximately 1 min, 200 μl homogenate was transferred into a fresh Eppendorf tube. To each tube, 50 μL IS-D was added and mixed. Then 600 μl acetonitrile was added and the sample mixture was vortexed for approximately 3 min. After centrifugation at 10000 rpm for 5 min at 4° C., 400 μL of the upper layer was transferred to a new tube and evaporate the supernatant to dryness at 35° C. Reconstitute the residue with 200 μL of 0.4% formic acid in water (pH6.0), and vortex for 3 min, submit for LC-MS/MS analysis.
Frozen unknown plasma samples were completely thawed at room temperature and vortexed thoroughly. With a pipette, 50 μL of plasma was transferred into a 2.0 mL Eppendorf tube. 50 μL of 0.1N HCl and 800 μL ethyl acetate were added into each sample. The sample mixture was vortexed for approximately 3 min.

[7] = iv daily for 5 days, phase I; cited from earlier work
[8] = 5 nM OA in the reaction, brain sample M1-1
[9] = 5 μM OA in the reaction, brain sample M1-1
[10] = read-out: IC50 2LMP, WST-20131015 (first value of the cell)
[11] = read-out: IC50 2LMP, WST-20131025 (second value of the cell)
[12] = End. in plasma after 153 1.25 mg/kg IV, Mean
[13] = End. in plasma after 153 1.25 mg/kg IV, rat 1
[14] = End. in plasma after 153 1.25 mg/kg IV, rat 2
[15] = End. in plasma after 153 1.25 mg/kg PO, Mean
[16] = End. in plasma after 153 1.25 mg/kg PO, rat 1
[17] = End. in plasma after 153 1.25 mg/kg PO, rat 2
[18] = Endothal in liver after single iv 153 1.25 mg/kg, Mean
[19] = Endothal in liver after single iv 153 1.25 mg/kg, rat 1
[20] = Endothal in liver after single iv 153 1.25 mg/kg, rat 2

C=C1[C@@H](O)[C@@H]2O[C@]3(CC[C@H](/C=C/[C@@H](C)[C@@H]4CC(C)=C[C@@]5(O[C@H](C[C@@](C)(O)C(=O)O)CC[C@H]5O)O4)O3)CC[C@H]2O[C@@H]1[C@@H](O)C[C@H](C)[C@H]1O[C@@]2(CCCCO2)CC[C@H]1C [OA, Okadaic acid]
Average Conc. (PP2A [1]; [8]): 270.60
Average Relative Activity (vehicle = 100) (PP2A [1]; [8]): 12.46
Conc. (phosphate, single reading) (PP2A [1]; [8]): 282.72 and 271.21
Mean Conc. (PP2A [1]; [8]): 276.96
Mean Conc. less IgG blank (PP2A [1]; [8]): 270.60
Relative Conc. (PP2A [1]; [8]): 0.12
Relative PP2A Activity (vehicle = 100) (PP2A [1]; [8]): 12.46
Average Conc. (PP2A [1]; [9]): −5.54
Average Relative Activity (vehicle = 100) (PP2A [1]; [9]): −0.38
Mean Conc. (PP2A [1]; [9]): 0.82
Mean Conc. less IgG blank (PP2A [1]; [9]): −5.54
Relative Conc. (PP2A [1]; [9]): 0.00
Relative PP2A Activity (vehicle = 100) (PP2A [1]; [9]): −0.38
activity of PP2A in brains, positive control (statement) (PP2A [1]; OA added to the reaction): significantly inhibited
activity of PP2A in livers, positive control (statement) (PP2A [2]): significantly inhibited

CCCCC/C=C/C/C=C/CCCCCCCCOC(=O)C1C2CCC(O2)C1C(=O)N1CCN(C)CC1 (stereo not shown) [Compound 158, 3-(4-Methylpiperazine-1-carbonyl)-7-oxa-bicyclo [2,2,1] heptane-2-carboxylic acid linoleyl ester]
pIC50 [3, 10]: 5.04
pIC50 [3, 11]: 4.89
pIC50 (lung cancer (A549) cells; Homo sapiens, A549): 5.06
cytotoxicity against lung cancer cells (statement) (lung cancer (A549) cells; A549): cytotoxic
cytotoxicity against breast cancer cells (statement) [4]: cytotoxic
cytotoxicity relative to 100 (statement) [4]: increased cytotoxicity relative to 100
pIC50 ([5]; Homo sapiens, U-87 MG, WST-20131017 (first value of the cell)): 4.82
pIC50 ([5]; Homo sapiens, U-87 MG, WST-20131024 (second value of the cell)): 5.08
cytotoxicity against glioblastoma cells (statement) [5]: cytotoxic

O=C(O)C1C2CCC(O2)C1C(=O)O (stereo not shown) [End.]
AUC [6, 12]: 378 ng·h/mL
AUC0-∞ [6, 12]: 600 ng·h/mL
Cmax [6, 12]: 70.5 ng/mL
MRT (0-t) [6, 12]: 3.34 h
T1/2 [6, 12]: 5.2 h
Tmax [6, 12]: 1.13 h
AUC [6, 13]: 482 ng·h/mL
AUC0-∞ [6, 13]: 618 ng·h/mL
Cmax [6, 13]: 77.1 ng/mL
MRT (0-t) [6, 13]: 3.93 h
T1/2 [6, 13]: 4.37 h
Tmax [6, 13]: 2 h
AUC [6, 14]: 274 ng·h/mL
AUC0-∞ [6, 14]: 581 ng·h/mL
Cmax [6, 14]: 63.8 ng/mL
MRT (0-t) [6, 14]: 2.74 h
T1/2 [6, 14]: 6.02 h
Tmax [6, 14]: 0.25 h
AUC [6, 15]: 179 ng·h/mL
AUC0-∞ [6, 15]: 364 ng·h/mL
Cmax [6, 15]: 46.9 ng/mL
MRT (0-t) [6, 15]: 2.76 h
T1/2 [6, 15]: 5.49 h
Tmax [6, 15]: 0.75 h
AUC [6, 16]: 189 ng·h/mL
AUC0-∞ [6, 16]: 395 ng·h/mL
Cmax [6, 16]: 53.6 ng/mL
MRT (0-t) [6, 16]: 2.8 h
T1/2 [6, 16]: 5.53 h
Tmax [6, 16]: 1 h
AUC [6, 17]: 169 ng·h/mL
AUC0-∞ [6, 17]: 333 ng·h/mL
Cmax [6, 17]: 40.2 ng/mL
MRT (0-t) [6, 17]: 2.72 h
T1/2 [6, 17]: 5.45 h
Tmax [6, 17]: 0.5 h
MRT (0-t) [6, 18]: 3.24 h
T1/2 [6, 18]: 2.79 h
Tmax [6, 18]: 2 h
T1/2 [6, 19]: 3 h
Tmax [6, 19]: 2 h
MRT (0-t) [6, 20]: 3.43 h
T1/2 [6, 20]: 2.57 h
Tmax [6, 20]: 2 h

CCCCCCCCCCCCCCCCCOC(=O)C1C2CCC(O2)C1C(=O)N1CCN(C)CC1 (stereo not shown) [Compound 159]
cytotoxicity against breast cancer cells (statement) ([3]; WST, 2LMP): cytotoxic
cytotoxicity relative to 100 (statement) ([3]; cell line not specified (2LMP, U-87, A549 tested)): increased cytotoxicity relative to 100
pIC50 [3, 10]: 5.33
pIC50 [3, 11]: 5.34
cytotoxicity against lung cancer cells (statement) (lung cancer (A549) cells; A549): cytotoxic
pIC50 (lung cancer (A549) cells): 5.33
cytotoxicity against glioblastoma cells (statement) [5]: cytotoxic
pIC50 ([5]; WST-20131017 (first value of the cell)): 5.27
pIC50 ([5]; WST-20131024 (second value of the cell)): 5.29

C[C@@](O)(/C=C/[C@H]1CC=CC(=O)O1)[C@@H](C[C@@H](O)\C=C/C=C\C=C\CO)OP(=O)(O)O [fostriecin]
dose limiting toxicity [7]: not achieved
major toxicities [7]: reversible non-cumulative increases in serum creatinine and hepatic enzymes
